Results: DBAASP
Values after ≈ are worked out from the molar mass of the structure shown. Each block holds one compound with its values, some of them ahead of it.

Assays:
Experiment in all cases: ≥ marks a high value that may be exact or a test limit, other limits are often not marked, values filed in µg/mL are converted to µM
[1] = tested on: Escherichia coli NCTC 10418
[2] = tested on: Staphylococcus aureus ATCC 12493
[3] = tested on: Staphylococcus aureus NCTC 10788
[4] = tested on: Pseudomonas aeruginosa ATCC 27853
[5] = tested on: Enterococcus faecalis NCTC 12697
[6] = tested on: Candida albicans NCPF 1467
[7] = tested on: Vibrio ordalii KCCM 41669
[8] = tested on: Streptococcus iniae FP5228
[9] = tested on: Vibrio harveyi ATCC 14126
[10] = tested on: Vibrio alginolyticus KCCM 2928
[11] = tested on: Streptococcus parauberis KSP 28
[12] = tested on: Edwardsiella piscicida FSW 910410
[13] = tested on: Vibrio anguillarum TR14001NF
[14] = tested on: Streptococcus parauberis PH0710
[15] = tested on: Vibrio campbellii KCCM 40684
[16] = tested on: Salmonella enterica subsp. enterica serovar Typhimurium ATCC 14028
[17] = tested on: Micrococcus luteus ATCC 4698
[18] = tested on: Klebsiella pneumoniae ATCC 10031
Serratia marcescens = tested on: Serratia marcescens
[19] = tested on: Pseudomonas aeruginosa ATCC 9027
[20] = tested on: Shigella dysenteriae ATCC 9752
[21] = tested on: Bacillus subtilis KCTC 1021
Escherichia coli = tested on: Escherichia coli
[22] = tested on: Escherichia coli K12 MG1655
[23] = tested on: Staphylococcus aureus ST88
[24] = tested on: Staphylococcus haemolyticus 527
Bacillus subtilis 168 HT = tested on: Bacillus subtilis 168 HT
[25] = tested on: Staphylococcus aureus ATCC BAA-41
Escherichia coli BL21 = tested on: Escherichia coli BL21
[26] = tested on: Staphylococcus epidermidis
[27] = tested on: Pseudomonas aeruginosa PAO1
[28] = tested on: Staphylococcus aureus ATCC 6538P
[29] = tested on: Saccharomyces cerevisiae NBRC 10217
[30] = tested on: Staphylococcus aureus NBRC 12732
[31] = tested on: Escherichia coli NBRC 14237
[32] = tested on: Cutibacterium acnes ATCC 11827
[33] = tested on: Staphylococcus epidermidis 09B2490
[34] = tested on: Staphylococcus aureus ATCC 2592
Cutibacterium acnes = tested on: Cutibacterium acnes
[35] = tested on: Cutibacterium acnes ATCC 6919
[36] = tested on: Staphylococcus epidermidis 09A3726

MIC [1]: ≥ 512 µM
MIC [2]: ≥ 512 µM
MIC [3]: ≥ 256 µM
MIC [4]: > 512 µM
MIC [5]: ≥ 512 µM
MIC [6]: ≥ 256 µM
Compound: CC[C@H](C)[C@H](NC(=O)[C@H](CCCCN)NC(=O)[C@@H]1CCCN1C(=O)[C@H](CC(C)C)NC(=O)[C@@H](N)Cc1ccccc1)C(=O)N[C@@H](CC(C)C)C(=O)N[C@@H](CCCCN)C(=O)N[C@H](C(=O)N[C@@H](C)C(=O)N[C@@H](C)C(=O)N[C@@H](CCCCN)C(N)=O)C(C)C [FLPKILKVAAK]

MIC [7]: ≥ 205 µM
MIC [8]: ≥ 51.3 µM
MIC [9]: ≥ 51.3 µM
MIC [10]: ≥ 205 µM
MIC [11]: ≥ 290 µM
MIC [12]: ≥ 290 µM
MIC [13]: ≥ 290 µM
MIC [14]: ≥ 103 µM
MIC [15]: ≥ 51.3 µM
Compound: CC[C@H](C)[C@H](NC(=O)[C@H](CCCCN)NC(=O)[C@@H](NC(=O)[C@@H](N)Cc1ccccc1)[C@@H](C)O)C(=O)N[C@@H](Cc1ccc(O)cc1)C(=O)NCC(=O)N[C@@H](CO)C(=O)N[C@@H](CCCN=C(N)N)C(=O)N[C@@H](CC(C)C)C(=O)N[C@@H](CCC(N)=O)C(=O)N[C@@H](CCCCN)C(=O)N[C@H](C(=O)N[C@@H](CC(C)C)C(=O)NCC(=O)N[C@@H](CC(N)=O)C(=O)O)C(C)C [FTKIYGSRLQKVLGN]

MIC [16]: 51.5 µM (≈ 125 µg/mL)
MIC [17]: 1.03 µM (≈ 2.5 µg/mL)
MIC [18]: 10.3 µM (≈ 25 µg/mL)
MIC (Serratia marcescens): ≥ 82.3 µM
MIC [19]: 51.5 µM (≈ 125 µg/mL)
MIC [20]: 20.6 µM (≈ 50 µg/mL)
MIC [21]: 10.3 µM (≈ 25 µg/mL)
MIC (Escherichia coli): 10.3 µM (≈ 25 µg/mL)
Compound: CC[C@H](C)[C@H](NC(=O)CN)C(=O)N[C@@H](CC(C)C)C(=O)N[C@@H](CC(=O)O)C(=O)N[C@H](C(=O)N[C@@H](CC(C)C)C(=O)N[C@@H](CCCCN)C(=O)N[C@@H](CCC(N)=O)C(=O)N[C@@H](Cc1ccccc1)C(=O)N[C@@H](C)C(=O)N[C@@H](CCCCN)C(=O)NCC(=O)N[C@H](C(=O)NCC(=O)N[C@@H](CCCCN)C(=O)N[C@@H](Cc1c[nH]c2ccccc12)C(=O)N[C@@H](CC(C)C)C(=O)N[C@H](C(=O)N[C@@H](CCCCN)C(=O)NCC(=O)N[C@@H](C)C(=O)N[C@@H](C)C(=O)N[C@@H](CCC(N)=O)C(=O)O)C(C)C)C(C)C)[C@@H](C)O [GILDTLKQFAKGVGKWLVKGAAQ]

MIC [22]: 14.8 µM (≈ 32.2 µg/mL)
MIC [23]: ≥ 100 µM
MIC (Bacillus subtilis 168 HT): 14.8 µM (≈ 32.2 µg/mL)
Compound: CC[C@H](C)[C@H](N)C(=O)NCC(=O)N[C@@H](CCCN=C(N)N)C(=O)N[C@@H](Cc1cnc[nH]1)C(=O)N[C@@H](Cc1ccccc1)C(=O)N[C@@H](CCCCN)C(=O)N[C@@H](CCCN=C(N)N)C(=O)N[C@@H](CCCN=C(N)N)C(=O)N[C@@H](CC(N)=O)C(=O)N[C@@H](CO)C(=O)N[C@H](C(=O)N[C@@H](Cc1c[nH]c2ccccc12)C(=O)NCC(=O)N[C@H](C(=O)N[C@@H](CS)C(=O)N[C@@H](Cc1c[nH]c2ccccc12)C(=O)N[C@@H](Cc1ccccc1)C(=O)O)[C@@H](C)CC)[C@@H](C)CC [IGRHFKRRNSIWGICWF]
MIC [24]: 14.8 µM (≈ 32.2 µg/mL)

MIC [25]: 8 µM (≈ 14.4 µg/mL)
MIC (Escherichia coli BL21): 2 µM (≈ 3.6 µg/mL)
MIC [26]: 0.354 µM (≈ 0.637 µg/mL)
MIC [27]: 2.83 µM (≈ 5.09 µg/mL)
MIC [28]: 5.66 µM (≈ 10.2 µg/mL)
Compound: CC[C@H](C)[C@H](NC(=O)[C@H](CCCCN)NC(=O)[C@H](CCCCN)NC(=O)[C@H](Cc1ccccc1)NC(=O)[C@H](CC(C)C)NC(=O)[C@H](CCCCN)NC(=O)[C@H](Cc1c[nH]c2ccccc12)NC(=O)[C@@H](N)CCCCN)C(=O)NCC(=O)N[C@@H](C)C(=O)N[C@H](C(=O)N[C@@H](CC(C)C)C(=O)N[C@@H](CCCCN)C(=O)N[C@@H](CCCCN)C(=O)N[C@@H](CC(C)C)C(=O)O)C(C)C [KWKLFKKIGAVLKKL]

MIC [29]: 6.25 µM (≈ 17.8 µg/mL)
MIC [30]: 3.12 µM (≈ 8.89 µg/mL)
MIC [31]: 3.12 µM (≈ 8.89 µg/mL)
Compound: CC[C@H](C)[C@H](NC(=O)[C@@H](N)[C@@H](C)O)C(=O)N[C@@H](CC(N)=O)C(=O)N[C@@H](CCCCN)C(=O)N[C@@H](CCCCN)C(=O)N[C@@H](Cc1ccccc1)C(=O)N[C@@H](CCCN=C(N)N)C(=O)N[C@@H](Cc1c[nH]c2ccccc12)C(=O)N[C@@H](Cc1cnc[nH]1)C(=O)NCC(=O)N[C@@H](CCCCN)C(=O)N[C@@H](CCCN=C(N)N)C(=O)N[C@@H](CCCCN)C(=O)N[C@@H](Cc1c[nH]c2ccccc12)C(=O)N[C@@H](Cc1c[nH]c2ccccc12)C(=O)N[C@@H](CC(C)C)C(=O)N[C@@H](CCCN=C(N)N)C(=O)N[C@@H](Cc1ccccc1)C(=O)N[C@H](C(=O)N[C@@H](CCCCN)C(=O)N[C@@H](CCC(N)=O)C(=O)O)C(C)C [TINKKFRWHGKRKWWLRFVKQ]

MIC [32]: 0.269 µM (≈ 0.6 µg/mL)
MIC [33]: 1.03 µM (≈ 2.3 µg/mL)
MIC [34]: 1.03 µM (≈ 2.3 µg/mL)
MIC (Cutibacterium acnes): 0.269 µM (≈ 0.6 µg/mL)
MIC [35]: 0.269 µM (≈ 0.6 µg/mL)
MIC [36]: 2.11 µM (≈ 4.7 µg/mL)
Compound: CC(C)[C@H](N)C(=O)N[C@@H](CCCCN)C(=O)N[C@@H](CCCN=C(N)N)C(=O)N[C@@H](Cc1c[nH]c2ccccc12)C(=O)N[C@@H](CCCCN)C(=O)N[C@@H](CCCCN)C(=O)N[C@@H](Cc1c[nH]c2ccccc12)C(=O)N[C@@H](Cc1c[nH]c2ccccc12)C(=O)N[C@@H](CCCN=C(N)N)C(=O)N[C@@H](CCCCN)C(=O)N[C@@H](Cc1c[nH]c2ccccc12)C(=O)N[C@@H](CCCCN)C(=O)N[C@@H](CCCCN)C(=O)N[C@@H](Cc1c[nH]c2ccccc12)C(=O)N[C@H](C(N)=O)C(C)C [VKRWKKWWRKWKKWV]
